# Bridge positions count the residues as written; N and C are the ends. Square brackets hold non-standard residues; d marks the D form. Peptide text beside a SMILES is read from it. * marks the point of attachment. ξ: configuration not given here. Phe(4-CONH2) = NC(=O)c1ccc(C[C@H](N)C(=O)O)cc1; Phe(4-COOH) = N[C@@H](Cc1ccc(C(=O)O)cc1)C(=O)O; Bip = N[C@@H](Cc1ccc(-c2ccccc2)cc1)C(=O)O; Phe(3-Me) = Cc1cccc(C[C@H](N)C(=O)O)c1; Val(3-OH) = CC(C)(O)[C@H](N)C(=O)O; 4Pal = N[C@@H](Cc1ccncc1)C(=O)O; Cha = N[C@@H](CC1CCCCC1)C(=O)O; Ile(3ξ) = CCC(C)[C@H](N)C(=O)O; Thr(3ξ) = CC(O)[C@H](N)C(=O)O; Carboxymethyl = O=C(O)C*; NMeA = CN[C@@H](C)C(=O)O; Orn = NCCC[C@H](N)C(=O)O; Dab = NCC[C@H](N)C(=O)O
# Target: T1, PE-labeled human PD-L1-Ig binding to Jurkat cell line over-expressing human PD-1 (Jurkat-PD-1) (Homo sapiens, UniProt Q15116)
# T1 construct: expressed in transfected cells; host or cells: Jurkat
# T1 sequence (Q15116 25-288): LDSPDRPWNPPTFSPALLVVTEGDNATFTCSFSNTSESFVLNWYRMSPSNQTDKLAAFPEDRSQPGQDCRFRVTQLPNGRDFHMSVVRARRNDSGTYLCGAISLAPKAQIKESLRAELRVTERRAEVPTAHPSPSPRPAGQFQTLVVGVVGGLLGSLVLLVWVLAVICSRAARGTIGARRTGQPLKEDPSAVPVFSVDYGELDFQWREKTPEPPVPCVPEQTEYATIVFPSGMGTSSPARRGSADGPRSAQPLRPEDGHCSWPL
# Assay: Jurkat-PD-1 Cell Binding High-Content Screening Assay (CBA): Method 1
# Settings: Jurkat-hPD-1 cells, PE-labeled PD-L1-Ig 20 nM final; read-out: Jurkat HPDL1 PD1 IC50 (uM) (Method 1)
row,Structure (SMILES),IC50
1,Cc1cccc(C[C@@H]2NC(=O)[C@H](CC(=O)O)NC(=O)[C@H](Cc3ccc(C(N)=O)cc3)NC(=O)[C@H](Cc3ccncc3)NC(=O)CSC[C@@H](C(=O)N[C@@H](CCN)C(N)=O)NC(=O)[C@H](CO)NC(=O)[C@H](C(C)(C)O)NC(=O)[C@H](CC3CCCCC3)NC(=O)[C@H](CCN)NC(=O)[C@@H](CC(C)C)NC(=O)[C@H](C)N(C)C(=O)[C@H](Cc3ccc(OCC(=O)O)cc3)NC(=O)[C@H](Cc3ccc(-c4ccccc4)cc3)NC(=O)[C@H](Cc3ccc(OCC(=O)O)cc3)NC2=O)c1 [Compound 2138] ({CH2CO}-[4Pal][Phe(4-CONH2)]D[Phe(3-Me)]Y(Carboxymethyl)[Bip]Y(Carboxymethyl)[NMeA][dL][Dab][Cha][Val(3-OH)]SC[Dab]-NH2; thioether N-14),0.03 µM
2,Cc1cccc(C[C@@H]2NC(=O)[C@H](CC(=O)O)NC(=O)[C@H](Cc3ccc(OCC(=O)O)cc3)NC(=O)[C@H](Cc3ccncc3)NC(=O)CSC[C@@H](C(=O)N[C@H](CC(N)=O)C(N)=O)NC(=O)[C@H](CO)NC(=O)[C@H](C(C)(C)O)NC(=O)[C@H](CC3CCCCC3)NC(=O)[C@H](CCN)NC(=O)[C@@H](CC(C)C)NC(=O)[C@H](C)N(C)C(=O)[C@H](Cc3ccc(O)cc3)NC(=O)[C@H](Cc3ccc(-c4ccccc4)cc3)NC(=O)[C@H](Cc3ccc(O)cc3)NC2=O)c1 [Compound 2140] ({CH2CO}-[4Pal]Y(Carboxymethyl)D[Phe(3-Me)]Y[Bip]Y[NMeA][dL][Dab][Cha][Val(3-OH)]SC[dN]-NH2; thioether N-14),0.1 µM
3,Cc1cccc(C[C@@H]2NC(=O)[C@H](CC(=O)O)NC(=O)[C@H](Cc3ccc(OCC(=O)O)cc3)NC(=O)[C@H](C(C)O)NC(=O)CSC[C@@H](C(=O)N[C@H](CC(N)=O)C(N)=O)NC(=O)[C@H](CO)NC(=O)[C@H](C(C)(C)O)NC(=O)[C@H](CC3CCCCC3)NC(=O)[C@H](CCN)NC(=O)[C@@H](CC(C)C)NC(=O)[C@H](C)N(C)C(=O)[C@H](Cc3ccc(O)cc3)NC(=O)[C@H](Cc3ccc(-c4ccccc4)cc3)NC(=O)[C@H](Cc3ccc(O)cc3)NC2=O)c1 (stereo partly drawn) [Compound 2142] ({CH2CO}-[Thr(3ξ)]Y(Carboxymethyl)D[Phe(3-Me)]Y[Bip]Y[NMeA][dL][Dab][Cha][Val(3-OH)]SC[dN]-NH2; thioether N-14),0.18 µM
4,Cc1cccc(C[C@@H]2NC(=O)[C@H](CC(=O)O)NC(=O)[C@H](Cc3ccc(OCC(=O)O)cc3)NC(=O)[C@H](C(C)O)NC(=O)CSC[C@@H](C(=O)N[C@@H](CCN)C(N)=O)NC(=O)[C@H](CO)NC(=O)[C@H](C(C)(C)O)NC(=O)[C@H](CC3CCCCC3)NC(=O)[C@H](CCN)NC(=O)[C@@H](CC(C)C)NC(=O)[C@H](C)N(C)C(=O)[C@H](Cc3ccc(OCC(=O)O)cc3)NC(=O)[C@H](Cc3ccc(-c4ccccc4)cc3)NC(=O)[C@H](Cc3ccc(OCC(=O)O)cc3)NC2=O)c1 (stereo partly drawn) [Compound 2149] ({CH2CO}-[Thr(3ξ)]Y(Carboxymethyl)D[Phe(3-Me)]Y(Carboxymethyl)[Bip]Y(Carboxymethyl)[NMeA][dL][Dab][Cha][Val(3-OH)]SC[Dab]-NH2; thioether N-14),0.02 µM
5,Cc1cccc(C[C@@H]2NC(=O)[C@H](CC(=O)O)NC(=O)[C@H](Cc3ccc(C(=O)O)cc3)NC(=O)[C@H](C(C)O)NC(=O)CSC[C@@H](C(=O)N[C@@H](CCN)C(N)=O)NC(=O)[C@H](CO)NC(=O)[C@H](C(C)(C)O)NC(=O)[C@H](CC3CCCCC3)NC(=O)[C@H](CCN)NC(=O)[C@@H](CC(C)C)NC(=O)[C@H](C)N(C)C(=O)[C@H](Cc3ccc(OCC(=O)O)cc3)NC(=O)[C@H](Cc3ccc(-c4ccccc4)cc3)NC(=O)[C@H](Cc3ccc(OCC(=O)O)cc3)NC2=O)c1 (stereo partly drawn) [Compound 2151] ({CH2CO}-[Thr(3ξ)][Phe(4-COOH)]D[Phe(3-Me)]Y(Carboxymethyl)[Bip]Y(Carboxymethyl)[NMeA][dL][Dab][Cha][Val(3-OH)]SC[Dab]-NH2; thioether N-14),0.02 µM
6,CCC(C)[C@@H]1NC(=O)[C@H](Cc2ccc(-c3ccccc3)cc2)NC(=O)[C@H](C(C)C)NC(=O)[C@H](Cc2c[nH]c3ccccc23)NC(=O)[C@H](CC(=O)O)NC(=O)[C@H](Cc2ccc(OCC(=O)O)cc2)NC(=O)[C@H](C(C)O)NC(=O)CSC[C@@H](C(=O)N[C@@H](CCCN)C(N)=O)NC(=O)[C@H](C(C)O)NC(=O)[C@H](C(C)C)NC(=O)[C@H](CC2CCCCC2)NC(=O)[C@H](CCN)NC(=O)[C@@H](CC(C)C)NC(=O)[C@H](C)N(C)C1=O (stereo partly drawn) [Compound 2153] ({CH2CO}-[Thr(3ξ)]Y(Carboxymethyl)DWV[Bip][Ile(3ξ)][NMeA][dL][Dab][Cha]V[Thr(3ξ)]C[Orn]-NH2; thioether N-14),0.02 µM

# The remaining molecules from weak to strong by IC50, led by results:
row,IC50,Structure (SMILES)
1,0.02 µM,CCC(C)[C@@H]1NC(=O)[C@H](Cc2ccc(-c3ccccc3)cc2)NC(=O)[C@H](C(C)C)NC(=O)[C@H](Cc2c[nH]c3ccccc23)NC(=O)[C@H](CC(=O)O)NC(=O)[C@H](Cc2ccc(OCC(=O)O)cc2)NC(=O)[C@H](C(C)O)NC(=O)CSC[C@@H](C(=O)N[C@H](CC(N)=O)C(N)=O)NC(=O)[C@H](CO)NC(=O)[C@H](C(C)(C)O)NC(=O)[C@H](CC2CCCCC2)NC(=O)[C@H](CCN)NC(=O)[C@@H](CC(C)C)NC(=O)[C@H](C)N(C)C1=O (stereo partly drawn) [Compound 2141] ({CH2CO}-[Thr(3ξ)]Y(Carboxymethyl)DWV[Bip][Ile(3ξ)][NMeA][dL][Dab][Cha][Val(3-OH)]SC[dN]-NH2; thioether N-14)
2,0.01 µM,CCC(C)[C@@H]1NC(=O)[C@H](Cc2ccc(-c3ccccc3)cc2)NC(=O)[C@H](C(C)C)NC(=O)[C@H](Cc2cccc(C)c2)NC(=O)[C@H](CC(=O)O)NC(=O)[C@H](Cc2ccc(OCC(=O)O)cc2)NC(=O)[C@H](Cc2ccncc2)NC(=O)CSC[C@@H](C(=O)N[C@@H](CCCN)C(N)=O)NC(=O)[C@H](C(C)O)NC(=O)[C@H](C(C)(C)O)NC(=O)[C@H](CC2CCCCC2)NC(=O)[C@H](CCN)NC(=O)[C@@H](CC(C)C)NC(=O)[C@H](C)N(C)C1=O (stereo partly drawn) [Compound 2145] ({CH2CO}-[4Pal]Y(Carboxymethyl)D[Phe(3-Me)]V[Bip][Ile(3ξ)][NMeA][dL][Dab][Cha][Val(3-OH)][Thr(3ξ)]C[Orn]-NH2; thioether N-14)
3,0.01 µM,Cc1cccc(C[C@@H]2NC(=O)[C@H](CC(=O)O)NC(=O)[C@H](Cc3ccc(OCC(=O)O)cc3)NC(=O)[C@H](Cc3ccncc3)NC(=O)CSC[C@@H](C(=O)N[C@@H](CCN)C(N)=O)NC(=O)[C@H](C(C)O)NC(=O)[C@H](C(C)(C)O)NC(=O)[C@H](CC3CCCCC3)NC(=O)[C@H](CCN)NC(=O)[C@@H](CC(C)C)NC(=O)[C@H](C)N(C)C(=O)[C@H](Cc3ccc(OCC(=O)O)cc3)NC(=O)[C@H](Cc3ccc(-c4ccccc4)cc3)NC(=O)[C@H](Cc3ccc(C(=O)O)cc3)NC2=O)c1 (stereo partly drawn) [Compound 2146] ({CH2CO}-[4Pal]Y(Carboxymethyl)D[Phe(3-Me)][Phe(4-COOH)][Bip]Y(Carboxymethyl)[NMeA][dL][Dab][Cha][Val(3-OH)][Thr(3ξ)]C[Dab]-NH2; thioether N-14)
4,0.01 µM,CCC(C)[C@@H]1NC(=O)[C@H](Cc2ccc(-c3ccccc3)cc2)NC(=O)[C@H](C(C)C)NC(=O)[C@H](Cc2cccc(C)c2)NC(=O)[C@H](CC(=O)O)NC(=O)[C@H](Cc2ccc(OCC(=O)O)cc2)NC(=O)[C@H](C(C)O)NC(=O)CSC[C@@H](C(=O)N[C@@H](CCCN)C(N)=O)NC(=O)[C@H](C(C)O)NC(=O)[C@H](C(C)(C)O)NC(=O)[C@H](CC2CCCCC2)NC(=O)[C@H](CCN)NC(=O)[C@@H](CC(C)C)NC(=O)[C@H](C)N(C)C1=O (stereo partly drawn) [Compound 2147] ({CH2CO}-[Thr(3ξ)]Y(Carboxymethyl)D[Phe(3-Me)]V[Bip][Ile(3ξ)][NMeA][dL][Dab][Cha][Val(3-OH)][Thr(3ξ)]C[Orn]-NH2; thioether N-14)
5,0.01 µM,Cc1cccc(C[C@@H]2NC(=O)[C@H](CC(=O)O)NC(=O)[C@H](Cc3ccc(OCC(=O)O)cc3)NC(=O)[C@H](C(C)O)NC(=O)CSC[C@@H](C(=O)N[C@@H](CCN)C(N)=O)NC(=O)[C@H](C(C)O)NC(=O)[C@H](C(C)(C)O)NC(=O)[C@H](CC3CCCCC3)NC(=O)[C@H](CCN)NC(=O)[C@@H](CC(C)C)NC(=O)[C@H](C)N(C)C(=O)[C@H](Cc3ccc(OCC(=O)O)cc3)NC(=O)[C@H](Cc3ccc(-c4ccccc4)cc3)NC(=O)[C@H](Cc3ccc(C(=O)O)cc3)NC2=O)c1 (stereo partly drawn) [Compound 2148] ({CH2CO}-[Thr(3ξ)]Y(Carboxymethyl)D[Phe(3-Me)][Phe(4-COOH)][Bip]Y(Carboxymethyl)[NMeA][dL][Dab][Cha][Val(3-OH)][Thr(3ξ)]C[Dab]-NH2; thioether N-14)
6,0.01 µM,Cc1cccc(C[C@@H]2NC(=O)[C@H](CC(=O)O)NC(=O)[C@H](Cc3ccc(OCC(=O)O)cc3)NC(=O)[C@H](C(C)O)NC(=O)CSC[C@@H](C(=O)N[C@@H](CCN)C(N)=O)NC(=O)[C@H](CO)NC(=O)[C@H](C(C)(C)O)NC(=O)[C@H](CC3CCCCC3)NC(=O)[C@H](CCN)NC(=O)[C@@H](CC(C)C)NC(=O)[C@H](C)N(C)C(=O)[C@H](Cc3ccc(OCC(=O)O)cc3)NC(=O)[C@H](Cc3ccc(-c4ccccc4)cc3)NC(=O)[C@H](Cc3ccc(C(=O)O)cc3)NC2=O)c1 (stereo partly drawn) [Compound 2150] ({CH2CO}-[Thr(3ξ)]Y(Carboxymethyl)D[Phe(3-Me)][Phe(4-COOH)][Bip]Y(Carboxymethyl)[NMeA][dL][Dab][Cha][Val(3-OH)]SC[Dab]-NH2; thioether N-14)
7,0.01 µM,Cc1cccc(C[C@@H]2NC(=O)[C@H](CC(=O)O)NC(=O)[C@H](Cc3ccc(OCC(=O)O)cc3)NC(=O)[C@H](C(C)O)NC(=O)CSC[C@@H](C(=O)N[C@@H](CCN)C(N)=O)NC(=O)[C@H](CO)NC(=O)[C@H](C(C)(C)O)NC(=O)[C@H](CC3CCCCC3)NC(=O)[C@H](CCN)NC(=O)[C@@H](CC(C)C)NC(=O)[C@H](C)N(C)C(=O)[C@H](Cc3ccc(C(=O)O)cc3)NC(=O)[C@H](Cc3ccc(-c4ccccc4)cc3)NC(=O)[C@H](Cc3ccc(C(=O)O)cc3)NC2=O)c1 (stereo partly drawn) [Compound 2152] ({CH2CO}-[Thr(3ξ)]Y(Carboxymethyl)D[Phe(3-Me)][Phe(4-COOH)][Bip][Phe(4-COOH)][NMeA][dL][Dab][Cha][Val(3-OH)]SC[Dab]-NH2; thioether N-14)
